Experimental data published in US20260132127A1, “NOVEL SPIRO COMPOUND” (MITSUBISHI TANABE PHARMA CORPORATION, priority 2021, published 2026).

Molecular target: T1, human TRH-DE (Homo sapiens, UniProt Q9UKU6)
T1 construct: expressed in transfected cells; host or cells: Expi 293 cells (transient expression), membrane fraction
T1 sequence (Q9UKU6 1-1069): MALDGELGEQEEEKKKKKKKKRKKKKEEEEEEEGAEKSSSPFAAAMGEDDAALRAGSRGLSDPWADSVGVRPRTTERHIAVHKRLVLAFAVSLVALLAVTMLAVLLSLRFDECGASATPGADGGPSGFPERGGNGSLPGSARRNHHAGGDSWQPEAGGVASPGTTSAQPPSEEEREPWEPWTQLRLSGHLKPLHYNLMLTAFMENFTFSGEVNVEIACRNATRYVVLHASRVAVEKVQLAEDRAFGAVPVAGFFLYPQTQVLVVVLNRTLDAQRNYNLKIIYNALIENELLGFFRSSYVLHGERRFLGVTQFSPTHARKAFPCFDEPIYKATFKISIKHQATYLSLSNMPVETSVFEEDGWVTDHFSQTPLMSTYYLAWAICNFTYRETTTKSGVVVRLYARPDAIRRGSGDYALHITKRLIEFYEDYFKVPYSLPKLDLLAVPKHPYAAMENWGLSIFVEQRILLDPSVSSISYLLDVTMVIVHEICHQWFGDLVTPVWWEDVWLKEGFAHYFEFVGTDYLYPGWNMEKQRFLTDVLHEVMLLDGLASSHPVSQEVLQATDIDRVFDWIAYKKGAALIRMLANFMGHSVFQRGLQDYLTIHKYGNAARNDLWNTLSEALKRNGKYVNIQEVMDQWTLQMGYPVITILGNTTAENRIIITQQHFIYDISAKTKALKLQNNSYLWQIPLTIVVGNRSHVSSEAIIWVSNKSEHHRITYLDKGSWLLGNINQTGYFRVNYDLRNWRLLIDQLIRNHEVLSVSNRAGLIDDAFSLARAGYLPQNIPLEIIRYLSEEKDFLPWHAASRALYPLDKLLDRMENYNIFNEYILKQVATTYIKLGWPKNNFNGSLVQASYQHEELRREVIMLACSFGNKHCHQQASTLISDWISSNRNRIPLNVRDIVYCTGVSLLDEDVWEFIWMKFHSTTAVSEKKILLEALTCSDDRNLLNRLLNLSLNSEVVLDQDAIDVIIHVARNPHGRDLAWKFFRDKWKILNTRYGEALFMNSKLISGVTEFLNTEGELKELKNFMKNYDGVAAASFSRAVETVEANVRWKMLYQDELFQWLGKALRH
Experiment: TRH-DE inhibition test (RapidFire MS measurement of product Cyclo (His-Pro))
Format: biochemical
Details: membrane fraction of Expi 293 cells expressing human TRH-DE; 10 μM TRH substrate; room temperature, 2 hours; 16-point concentration test
Description: The compounds described in “1. […] The enzyme inhibitory activity of each of the compounds was evaluated by measuring the amount of the product Cyclo (His-Pro) of the enzyme reaction using a RapidFire RF 365 HTMS system (manufactured by Agilent Technologies, Inc.) connected to a triple quadrupole mass spectrometer (API 4000, manufactured by SCIEX). A membrane fraction prepared from Expi 293 cells transiently expressing human TRH-DE was used as an enzyme. The membrane fraction was suspended in 4 μg/ml of a reaction buffer (50 mM sodium phosphate (pH 7.4), 25 mM NaCl, 0.01% Triton […], and 200 μM bacitracin) and mixed with the test compound at each concentration. 10 μM […]), which was a substrate, was added, and the mixture was reacted at room temperature for 2 hours. The reaction was stopped in the same amount of a solution of acetonitrile:methanol (1:1) containing 1 μM of the stable isotope Cyclo ([…]) as an internal standard, and the supernatant was collected after centrifugation. In the RapidFire RF 365 HTMS system, a portion of the supernatant was aspirated, loaded onto a Graphic Carbon column (manufactured by Agilent Technologies, Inc.) with a buffer A (water, 0.09% formic acid, 0.01% trifluoroacetic acid) and washed with ultrapure water. Next, washing was performed with acetonitrile. The contents in the column were eluted with a buffer B (80% acetonitrile, 0.09% formic acid, 0.01% trifluoroacetic acid) and injected into a mass spectrometer for analysis. […] The ESI voltage was set to 5,500 V and the temperature was set to 650° C. For the calculation of the inhibition rate, a Ratio value corrected by dividing the product amount by the internal standard amount was used. The inhibition rate (%) was calculated by % Inhibition={1-(Ratio value of sample-Ratio value of blank)/(Ratio value of control-Ratio value of blank)}×100. The IC50 value was calculated from the concentration reactivity test at 16 points.

IC50 | SMILES
154 nM | CC1c2cc(F)cnc2C(=O)N1C1CC2(C1)CN(S(=O)(=O)c1ccccc1F)C2 (racemic) [Example 292]
121 nM | Cc1cnc2c(c1)C(C)N(C1CC3(C1)CN(S(=O)(=O)c1ccccc1F)C3)C2=O (racemic) [Example 293]
118 nM | COc1ccc2c(n1)C(=O)N(C1CC3(C1)CN(S(=O)(=O)c1ccccc1F)C3)C2C (racemic) [Example 294]
355 nM | CC1c2cnccc2C(=O)N1C1CC2(C1)CN(S(=O)(=O)c1ccccc1F)C2 (racemic) [Example 295]
33 nM | C[C@@H]1CC[C@H](C)N(C2CC3(C2)CN(S(=O)(=O)c2ccccc2F)C3)C(=O)C1 (racemic) [Example 436, (4R*,7S*)-1-[2-(2-fluorophenyl)sulfonyl-2-azaspiro[3.3]heptan-6-yl]-4,7-dimethylazepan-2-one]
292 nM | C[C@@H]1CC[C@@H](C)N(C2CC3(C2)CN(S(=O)(=O)c2ccccc2F)C3)C(=O)C1 (racemic) [Example 437, (4R*,7R*)-1-[2-(2-fluorophenyl)sulfonyl-2-azaspiro[3.3]heptan-6-yl]-4,7-dimethylazepan-2-one]
126 nM | CC1CCC(=O)N(C2CC3(C2)CN(S(=O)(=O)c2ccccc2F)C3)C(C)C1 (racemic) [Example 438]
124 nM | CC1CCC(=O)N(C2CC3(C2)CN(S(=O)(=O)c2ccccc2F)C3)C(C)C1 (racemic) [Example 439]
199 nM | CC1CCCC(=O)N1C1CC2(C1)CN(S(=O)(=O)c1ccccc1F)C2 (racemic) [Example 440, 1-[2-(2-fluorophenyl)sulfonyl-2-azaspiro[3.3]heptan-6-yl]-6-methylpiperidin-2-one]
2 nM | C[C@@H]1COc2nc(N3C[C@H]4C[C@H]4C3)ncc2C(=O)N1C1CC2(C1)CN(S(=O)(=O)c1ccccc1F)C2 (relative stereo) [Example 168, (7R)-2-[(1S*,5R*)-3-azabicyclo[3.1.0]hexan-3-yl]-6-[2-(2-fluorophenyl)sulfonyl]-2-azaspiro[3.3]heptan-6-yl]-7-methyl-7,8-dihydropyrimido[5,4-f][1,4]oxazepin-5-one]
5 nM | CC1COc2cccnc2C(=O)N1C1CC2(C1)CN(S(=O)(=O)c1ccccc1F)C2 (single isomer, unassigned) [Example 348]
507 nM | CC1COc2cccnc2C(=O)N1C1CC2(C1)CN(S(=O)(=O)c1ccccc1F)C2 (single isomer, unassigned) [Example 349]
11 nM | CC1CCc2nc(C(F)(F)F)sc2C(=O)N1C1CC2(C1)CN(S(=O)(=O)c1ccccc1F)C2 (single isomer, unassigned) [Example 352]
66 nM | CC1CCc2nc(C(F)(F)F)sc2C(=O)N1C1CC2(C1)CN(S(=O)(=O)c1ccccc1F)C2 (single isomer, unassigned) [Example 353]
2 nM | CC1CCc2nc(C3CC3)sc2C(=O)N1C1CC2(C1)CN(S(=O)(=O)c1ccccc1F)C2 (single isomer, unassigned) [Example 354]
17 nM | CC1CCc2nc(C3CC3)sc2C(=O)N1C1CC2(C1)CN(S(=O)(=O)c1ccccc1F)C2 (single isomer, unassigned) [Example 355]
44 nM | CC1Cc2nc(C(F)(F)F)ccc2C(=O)N1C1CC2(C1)CN(S(=O)(=O)c1ccccc1F)C2 (single isomer, unassigned) [Example 356]
89 nM | CC1c2ccccc2C(=O)N1C1CC2(C1)CN(S(=O)(=O)c1ccccc1F)C2 (single isomer, unassigned) [Example 358]
454 nM | CC1c2ccccc2C(=O)N1C1CC2(C1)CN(S(=O)(=O)c1ccccc1F)C2 (single isomer, unassigned) [Example 359]
86 nM | CC1c2cccnc2C(=O)N1C1CC2(C1)CN(S(=O)(=O)c1ccccc1F)C2 (single isomer, unassigned) [Example 360]
182 nM | CC1c2cc(F)cnc2C(=O)N1C1CC2(C1)CN(S(=O)(=O)c1ccccc1F)C2 (single isomer, unassigned) [Example 362]

IC50 | SMILES
160 nM | CC1c2cc(C(F)(F)F)cnc2C(=O)N1C1CC2(C1)CN(S(=O)(=O)c1ccccc1F)C2 (single isomer, unassigned) [Example 365]
10 nM | C[C@@H]1COc2nc(OC3CC(C#N)C3)ncc2C(=O)N1C1CC2(C1)CN(S(=O)(=O)c1ccccc1F)C2 (stereo in doubt) [Example 379]
13 nM | C[C@@H]1COc2nc(Cl)ncc2C(=O)N1C1CC2(C1)CN(S(=O)(=O)c1ccccc1F)C2 [Example 6]
13 nM | C[C@@H]1COc2nccnc2C(=O)N1C1CC2(C1)CN(S(=O)(=O)c1ccccc1F)C2 [Example 8, (7R)-8-[2-(2-fluorophenyl)sulfonyl-2-azaspiro[3.3]heptan-6-yl]-7-methyl-6,7-dihydropyrazino[2,3-f][1,4]oxazepin-9-one]
4 nM | C[C@@H]1COc2cc(F)cnc2C(=O)N1C1CC2(C1)CN(S(=O)(=O)c1ccccc1F)C2 [Example 11]
9 nM | C[C@@H]1COc2ccc(Cl)nc2C(=O)N1C1CC2(C1)CN(S(=O)(=O)c1ccccc1F)C2 [Example 12]
2 nM | C[C@@H]1COc2cc(Cl)cnc2C(=O)N1C1CC2(C1)CN(S(=O)(=O)c1ccccc1F)C2 [Example 13]
8 nM | C[C@@H]1COc2ccc(C(F)(F)F)nc2C(=O)N1C1CC2(C1)CN(S(=O)(=O)c1ccccc1F)C2 [Example 17]
1 nM | C[C@@H]1COc2cc(Br)cnc2C(=O)N1C1CC2(C1)CN(S(=O)(=O)c1ccccc1F)C2 [Example 18]
2 nM | C[C@@H]1COc2ccncc2C(=O)N1C1CC2(C1)CN(S(=O)(=O)c1ccccc1F)C2 [Example 19]
2 nM | C[C@@H]1COc2cc(Cl)ncc2C(=O)N1C1CC2(C1)CN(S(=O)(=O)c1ccccc1F)C2 [Example 22]
3 nM | C[C@@H]1COc2cc(C(F)(F)F)ncc2C(=O)N1C1CC2(C1)CN(S(=O)(=O)c1ccccc1F)C2 [Example 24]
14 nM | C[C@@H]1COc2ncc(F)cc2C(=O)N1C1CC2(C1)CN(S(=O)(=O)c1ccccc1F)C2 [Example 27]
3 nM | C[C@@H]1COc2ncc(Cl)cc2C(=O)N1C1CC2(C1)CN(S(=O)(=O)c1ccccc1F)C2 [Example 32]
15 nM | C[C@@H]1COc2ncc(C(F)(F)F)cc2C(=O)N1C1CC2(C1)CN(S(=O)(=O)c1ccccc1F)C2 [Example 33]
8 nM | C[C@@H]1COc2nc(Cl)ccc2C(=O)N1C1CC2(C1)CN(S(=O)(=O)c1ccccc1F)C2 [Example 34]
7 nM | C[C@@H]1COc2nc(OC(F)(F)F)ccc2C(=O)N1C1CC2(C1)CN(S(=O)(=O)c1ccccc1F)C2 [Example 35]
21 nM | C[C@@H]1COc2nc(Cl)c(F)cc2C(=O)N1C1CC2(C1)CN(S(=O)(=O)c1ccccc1F)C2 [Example 36]
6 nM | Cc1nc2c(cc1Br)C(=O)N(C1CC3(C1)CN(S(=O)(=O)c1ccccc1F)C3)[C@H](C)CO2 [Example 37]
12 nM | C[C@@H]1COc2ncccc2C(=O)N1C1CC2(C1)CN(S(=O)(=O)c1ccccc1F)C2 [Example 38]
20 nM | CC[C@@H]1COc2ncccc2C(=O)N1C1CC2(C1)CN(S(=O)(=O)c1ccccc1F)C2 [Example 39]
